Data from ChEMBL document CHEMBL4311957, “Recent advances in natural antifungal flavonoids and their derivatives” (Bioorg Med Chem Lett, 2019).
In brackets after ≈: the same amount, converted by molar mass. Each block holds one compound with its values, some of them ahead of it.

Columns and labels:
[1] = system: Candida parapsilosis; test: Antifungal activity against Candida parapsilosis 96 by microdilution method; assay type: functional; settings: Lodderomyces parapsilosis
[2] = system: Candida tropicalis; test: Antifungal activity against Candida tropicalis 166 by microdilution method; assay type: functional
[3] = system: Candida albicans; test: Antifungal activity against Candida albicans 501 by microdilution method; assay type: functional
[4] = system: Candida albicans; test: Antifungal activity against Candida albicans 498 by microdilution method; assay type: functional
[5] = system: Candida albicans; test: Antifungal activity against Candida albicans 53 by microdilution method; assay type: functional
[6] = system: Candida albicans; test: Antifungal activity against Candida albicans ATCC 10231 by microdilution method; assay type: functional
[7] = system: Nakaseomyces glabratus; test: Antifungal activity against Candida glabrata 507 by microdilution method; assay type: functional
[8] = system: Nakaseomyces glabratus; test: Antifungal activity against Candida glabrata 531 by microdilution method; assay type: functional
[9] = system: Nakaseomyces glabratus; test: Antifungal activity against Candida glabrata 587 by microdilution method; assay type: functional
[10] = system: Nakaseomyces glabratus; test: Antifungal activity against Candida glabrata 510 by microdilution method; assay type: functional
[11] = system: Nakaseomyces glabratus; test: Antifungal activity against Candida glabrata 493 by microdilution method; assay type: functional
[12] = system: Nakaseomyces glabratus; test: Antifungal activity against Candida glabrata 482 by microdilution method; assay type: functional
[13] = system: Nakaseomyces glabratus; test: Antifungal activity against Candida glabrata ATCC 90030; assay type: functional
[14] = system: Nakaseomyces glabratus; test: Antifungal activity against Candida glabrata WT-5; assay type: functional
[15] = system: Pichia kudriavzevii; test: Antifungal activity against Candida krusei ATCC 6258; assay type: functional
[16] = system: Pichia kudriavzevii; test: Antifungal activity against Candida krusei CK25; assay type: functional
[17] = system: Candida parapsilosis; test: Antifungal activity against Candida parapsilosis ATCC 22014; assay type: functional; settings: Lodderomyces parapsilosis
[18] = system: Candida parapsilosis; test: Antifungal activity against Candida parapsilosis 90/2224; assay type: functional; settings: Lodderomyces parapsilosis
[19] = system: Candida albicans; test: Antifungal activity against Candida albicans NBRC 1385 by microdilution method; assay type: functional
[20] = system: Trichophyton rubrum; test: Antifungal activity against Trichophyton rubrum NBRC 5467 by microdilution method; assay type: functional
[21] = system: Trichophyton mentagrophytes; test: Antifungal activity against Trichophyton mentagrophytes IFM 46027 by microdilution method; assay type: functional
[22] = system: Aspergillus fumigatus; test: Antifungal activity against Aspergillus fumigatus NBRC 4400 by microdilution method; assay type: functional
[23] = system: Candida tropicalis; test: Antifungal activity against FLC-resistant Candida tropicalis in presence of FLC; assay type: functional
[24] = system: Candida albicans; test: Antifungal activity against Candida albicans ATCC 90028 after 18 hrs by two-fold microdilution method; assay type: functional; settings: ATCC 90028, 18 h
[25] = system: Nakaseomyces glabratus; test: Antifungal activity against Candida glabrata ATCC 90030 after 18 hrs by two-fold microdilution method; assay type: functional; settings: ATCC 90030, 18 h
[26] = system: Candida parapsilosis; test: Antifungal activity against Candida parapsilosis ATCC 22019 after 18 hrs by two-fold microdilution method; assay type: functional; settings: Lodderomyces parapsilosis, ATCC 22019, 18 h
[27] = system: Cryptococcus neoformans; test: Antifungal activity against Cryptococcus neoformans after 72 hrs; assay type: functional
[28] = system: Pichia kudriavzevii; test: Antifungal activity against Candida krusei 168 by microdilution method; assay type: functional
[29] = system: Candida albicans; test: Antifungal activity against Candida albicans ATCC 10231 after 48 hrs by CLSI-based broth microdilution method; assay type: functional; settings: ATCC 10231, 48 h
[30] = system: Candida tropicalis; test: Antifungal activity against Candida tropicalis CCC 131-2000 after 48 hrs by CLSI-based broth microdilution method; assay type: functional; settings: CCC 131-2000, 48 h
[31] = system: Cryptococcus neoformans; test: Antifungal activity against Cryptococcus neoformans ATCC 32264 after 48 hrs by CLSI-based broth microdilution method; assay type: functional; settings: ATCC 32264, 48 h
[32] = system: Saccharomyces cerevisiae; test: Antifungal activity against Saccharomyces cerevisiae ATCC 9763 after 48 hrs by CLSI-based broth microdilution method; assay type: functional; settings: ATCC 9763, 48 h
[33] = system: Nannizzia gypsea; test: Antifungal activity against Microsporum gypseum after 5 days; assay type: functional; settings: 120 h
[34] = system: Trichophyton mentagrophytes; test: Antifungal activity against Trichophyton mentagrophytes after 5 days; assay type: functional; settings: 120 h
[35] = system: Trichophyton rubrum; test: Antifungal activity against Trichophyton rubrum after 5 days; assay type: functional; settings: 120 h
[36] = system: Trichophyton tonsurans; test: Antifungal activity against Trichophyton tonsurans after 5 days; assay type: functional; settings: 120 h
[37] = system: Cryptococcus gattii; test: Antifungal activity against Cryptococcus gattii after 72 hrs; assay type: functional, Cryptococcus gattii VGI
[38] = system: Candida albicans; test: Antifungal activity against Candida albicans after 48 hrs by broth micro dilution method; assay type: functional
[39] = system: Candida parapsilosis; test: Antifungal activity against Candida parapsilosis after 48 hrs by broth micro dilution method; assay type: functional; settings: Lodderomyces parapsilosis
[40] = system: Cryptococcus neoformans; test: Antifungal activity against Cryptococcus neoformans after 48 hrs by broth micro dilution method; assay type: functional
[41] = system: Candida tropicalis; test: Antifungal activity against FLC-resistant Candida tropicalis; assay type: functional

Compound: Oc1cc(O)c2c(c1)O[C@H](c1ccc(O)c(O)c1)[C@@H](O)C2 [CIANIDANOL]
MIC [23]: ≤ 16 µg/mL

Compound: O=C(O)[C@H]1O[C@@H](Oc2cc(O)c3c(=O)cc(-c4ccc(O)cc4)oc3c2)[C@H](O)[C@@H](O)[C@@H]1O
MIC [38]: > 256 µg/mL
MIC [39]: 64 µg/mL (≈ 143 µM)
MIC [40]: 128 µg/mL (≈ 287 µM)

Compound: O=C(O[C@@H]1Cc2c(O)cc(O)cc2O[C@@H]1c1cc(O)c(O)c(O)c1)c1cc(O)c(O)c(O)c1 [EPIGALOCATECHIN GALLATE]
MIC [41]: ≤ 1 µg/mL

Other lines, results leading:

MIC [1]: > 83 µg/mL
MIC50 [1]: 13 to 104 µg/mL (≈ 58.5 to 468 µM)
MIC [2]: > 83 µg/mL
MIC50 [2]: 13 to 104 µg/mL (≈ 58.5 to 468 µM)
MIC [3]: > 83 µg/mL
MIC [4]: > 83 µg/mL
MIC [5]: > 83 µg/mL
MIC [6]: > 83 µg/mL
MIC [7]: 62.5 µg/mL (≈ 281 µM)
MIC [8]: 62.5 µg/mL (≈ 281 µM)
MIC [9]: 62.5 µg/mL (≈ 281 µM)
MIC [10]: 62.5 µg/mL (≈ 281 µM)
MIC [11]: 62.5 µg/mL (≈ 281 µM)
MIC [12]: 62.5 µg/mL (≈ 281 µM)
MIC [13]: 52.7 µg/mL (≈ 237 µM)
MIC [14]: 52.7 µg/mL (≈ 237 µM)
MIC [15]: 2.7 µg/mL (≈ 12.1 µM)
MIC [16]: 2.7 µg/mL (≈ 12.1 µM)
MIC [17]: 5.4 µg/mL (≈ 24.3 µM)
MIC [18]: 5.4 µg/mL (≈ 24.3 µM)
MIC [19]: 30 µM (≈ 6.67 µg/mL)
MIC [20]: 120 µM (≈ 26.7 µg/mL)
MIC [21]: 60 µM (≈ 13.3 µg/mL)
MIC [22]: 230 µM (≈ 51.1 µg/mL)
Compound: O=c1cc(-c2ccccc2)oc2ccccc12 [FLAVONE]

MIC [24]: 15.6 µg/mL (≈ 46.2 µM)
MIC [25]: 15.6 µg/mL (≈ 46.2 µM)
MIC [26]: 15.6 µg/mL (≈ 46.2 µM)
Compound: CC(C)=CCc1c(O)cc(O)c2c(=O)cc(-c3ccc(O)cc3)oc12

MIC [27]: 8 to 128 µg/mL (≈ 25.1 to 402 µM)
MIC [1]: 16 µg/mL (≈ 50.3 µM)
MIC [2]: 64 µg/mL (≈ 201 µM)
MIC [28]: 64 µg/mL (≈ 201 µM)
MIC [3]: 16 to 64 µg/mL (≈ 50.3 to 201 µM)
MIC [4]: 16 to 64 µg/mL (≈ 50.3 to 201 µM)
MIC [5]: 16 to 64 µg/mL (≈ 50.3 to 201 µM)
MIC [6]: 16 to 64 µg/mL (≈ 50.3 to 201 µM)
MIC [7]: 3.9 to 15.7 µg/mL (≈ 12.3 to 49.3 µM)
MIC [8]: 3.9 to 15.7 µg/mL (≈ 12.3 to 49.3 µM)
MIC [9]: 3.9 to 15.7 µg/mL (≈ 12.3 to 49.3 µM)
MIC [10]: 3.9 to 15.7 µg/mL (≈ 12.3 to 49.3 µM)
MIC [11]: 3.9 to 15.7 µg/mL (≈ 12.3 to 49.3 µM)
MIC [12]: 3.9 to 15.7 µg/mL (≈ 12.3 to 49.3 µM)
MIC [13]: 6.79 µg/mL (≈ 21.3 µM)
MIC [29]: 31.2 µg/mL (≈ 98 µM)
MIC [30]: 31.2 µg/mL (≈ 98 µM)
MIC [31]: 31.2 µg/mL (≈ 98 µM)
MIC [32]: 31.2 µg/mL (≈ 98 µM)
MIC [33]: 4 to 128 µg/mL (≈ 12.6 to 402 µM)
MIC [34]: 4 to 128 µg/mL (≈ 12.6 to 402 µM)
MIC [35]: 4 to 128 µg/mL (≈ 12.6 to 402 µM)
MIC [36]: 4 to 128 µg/mL (≈ 12.6 to 402 µM)
MIC [37]: 128 µg/mL (≈ 402 µM)
Compound: O=c1c(O)c(-c2cc(O)c(O)c(O)c2)oc2cc(O)cc(O)c12 [MYRICETIN]

MIC [27]: 8 to 128 µg/mL (≈ 24.1 to 385 µM)
MIC [13]: 6.79 to 15.4 µg/mL (≈ 20.4 to 46.3 µM)
MIC [29]: 31.2 µg/mL (≈ 93.9 µM)
MIC [30]: 31.2 µg/mL (≈ 93.9 µM)
MIC [31]: 31.2 µg/mL (≈ 93.9 µM)
MIC [32]: 31.2 µg/mL (≈ 93.9 µM)
MIC [33]: 4 to 128 µg/mL (≈ 12 to 385 µM)
MIC [34]: 4 to 128 µg/mL (≈ 12 to 385 µM)
MIC [35]: 4 to 128 µg/mL (≈ 12 to 385 µM)
MIC [36]: 4 to 128 µg/mL (≈ 12 to 385 µM)
MIC [37]: 128 µg/mL (≈ 385 µM)
Compound: COc1cc(O)cc2oc(-c3cc(O)c(O)c(O)c3)c(O)c(=O)c12
